# Measured values published in the supplement of paper PMC10307832.
# How the values were obtained:
# Experiment in all cases: relative viability (nuclei count vs DMSO), 5 days (fraction); higher = more cells survive
# [1] = compound: COc1cc2ncn(-c3cc(OCc4ccccc4C(F)(F)F)c(C(N)=O)s3)c2cc1OC
# Method in brief: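 Viability here means nuclei in treated wells divided by nuclei in vehicle wells, reported as the median across plates. Only plates with control CV below 25% and at least one doubling passed. Lung cancer cell lines in 1536-well plates were exposed to five √10-spaced library-drug doses for 5 days and counted from 4× Hoechst images in MetaXpress.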
# [2] = compound: COc1cc2ncn(-c3cc(OCc4ccccc4C(F)(F)F)c(C(N)=O)s3)c2cc1OC + CC(C)C[C@H](NC(=O)[C@H](Cc1ccccc1)NC(=O)c1cnccn1)B(O)O [Bortezomib] (partner 0.002 µM)
# Method in brief: (§1)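 One day after seeding in 1536-well plates, lung cancer cell lines were dosed by pin tool. Dosing was either single-drug or a fixed anchor-drug dose plus five library-drug doses (not always all listed) in √10 steps. After 5 days, nuclei were stained in one fix-and-stain step and counted on 4× images, and relative viability is the nuclei count of treated wells over that of vehicle wells, given as the median of duplicate plates.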
# [3] = compound: COc1cc2ncn(-c3cc(OCc4ccccc4C(F)(F)F)c(C(N)=O)s3)c2cc1OC + O=C(c1cc(Cc2n[nH]c(=O)c3ccccc23)ccc1F)N1CCN(C(=O)C2CC2)CC1 [Olaparib] (partner 8 µM)
# Method in brief: as §1
# [4] = compound: COc1cc2ncn(-c3cc(OCc4ccccc4C(F)(F)F)c(C(N)=O)s3)c2cc1OC + CS(=O)(=O)CCNCc1ccc(-c2ccc3ncnc(Nc4ccc(OCc5cccc(F)c5)c(Cl)c4)c3c2)o1 [Lapatinib] (partner 2 µM)
# Method in brief: as §1
# [5] = compound: COc1cc2ncn(-c3cc(OCc4ccccc4C(F)(F)F)c(C(N)=O)s3)c2cc1OC + COc1cc2c(Oc3ccc(NC(=O)C4(C(=O)Nc5ccc(F)cc5)CC4)cc3F)ccnc2cc1OCCCN1CCOCC1 [Foretinib] (partner 0.25 µM)
# Method in brief: as §1
# [6] = compound: COc1cc2ncn(-c3cc(OCc4ccccc4C(F)(F)F)c(C(N)=O)s3)c2cc1OC + C[C@@H](Oc1cc(-c2cnn(C3CCNCC3)c2)cnc1N)c1c(Cl)ccc(F)c1Cl [Crizotinib] (partner 1 µM)
# Method in brief: as §1
# [7] = compound: COc1cc2ncn(-c3cc(OCc4ccccc4C(F)(F)F)c(C(N)=O)s3)c2cc1OC + CC1(C)CCC(c2ccc(Cl)cc2)=C(CN2CCN(c3ccc(C(=O)NS(=O)(=O)c4ccc(N[C@H](CCN5CCOCC5)CSc5ccccc5)c(S(=O)(=O)C(F)(F)F)c4)cc3)CC2)C1 [Navitoclax] (partner 0.5 µM)
# Method in brief: as §1
# [8] = compound: COc1cc2ncn(-c3cc(OCc4ccccc4C(F)(F)F)c(C(N)=O)s3)c2cc1OC + C[C@]1(O)C[C@@H](c2nc(-c3ccc4ccc(-c5ccccc5)nc4c3)c3c(N)nccn32)C1 [Linsitinib] (partner 1 µM)
# Method in brief: as §1
# [9] = compound: COc1cc2ncn(-c3cc(OCc4ccccc4C(F)(F)F)c(C(N)=O)s3)c2cc1OC + Cc1nc(NC(=O)N2CCC[C@H]2C(N)=O)sc1-c1ccnc(C(C)(C)C(F)(F)F)c1 [Alpelisib] (partner 2 µM)
# Method in brief: as §1
# [10] = compound: COc1cc2ncn(-c3cc(OCc4ccccc4C(F)(F)F)c(C(N)=O)s3)c2cc1OC + CS(=O)(=O)N1CCN(Cc2cc3nc(-c4cccc5[nH]ncc45)nc(N4CCOCC4)c3s2)CC1 [Pictilisib] (partner 1 µM)
# Method in brief: as §1
# [11] = compound: COc1cc2ncn(-c3cc(OCc4ccccc4C(F)(F)F)c(C(N)=O)s3)c2cc1OC + N=C(N)NC(=N)NCCc1ccccc1 [Phenformin] (partner 250 µM)
# Method in brief: as §1
# [12] = compound: COc1cc2ncn(-c3cc(OCc4ccccc4C(F)(F)F)c(C(N)=O)s3)c2cc1OC + Nc1ncn([C@H]2C[C@H](O)[C@@H](CO)O2)c(=O)n1 [Decitabine] (partner 2 µM)
# Method in brief: as §1
cell line,measurement,setting,value
Calu-6,relative viability,[1]; 0.05 µM,0.956
same,relative viability,[1]; 0.1581 µM,0.835
same,relative viability,[1]; 0.5 µM,0.268
same,relative viability,[1]; 1.581 µM,0.117
same,relative viability,[1]; 5 µM,0.11
same,relative viability,[2]; first compound 0.05 µM,0.805
same,relative viability,[2]; first compound 0.1581 µM,0.69
same,relative viability,[2]; first compound 0.5 µM,0.203
same,relative viability,[2]; first compound 1.581 µM,0.116
same,relative viability,[2]; first compound 5 µM,0.117
same,relative viability,[3]; first compound 0.05 µM,0.541
same,relative viability,[3]; first compound 0.1581 µM,0.454
same,relative viability,[3]; first compound 0.5 µM,0.172
same,relative viability,[3]; first compound 1.581 µM,0.086
same,relative viability,[3]; first compound 5 µM,0.0935
same,relative viability,[4]; first compound 0.05 µM,1.02
same,relative viability,[4]; first compound 0.1581 µM,0.872
same,relative viability,[4]; first compound 0.5 µM,0.315
same,relative viability,[4]; first compound 1.581 µM,0.129
same,relative viability,[4]; first compound 5 µM,0.128
same,relative viability,[5]; first compound 0.05 µM,0.791
same,relative viability,[5]; first compound 0.1581 µM,0.612
same,relative viability,[5]; first compound 0.5 µM,0.203
same,relative viability,[5]; first compound 1.581 µM,0.0691
same,relative viability,[5]; first compound 5 µM,0.0725
same,relative viability,[6]; first compound 0.05 µM,0.778
same,relative viability,[6]; first compound 0.1581 µM,0.755
same,relative viability,[6]; first compound 0.5 µM,0.288
same,relative viability,[6]; first compound 1.581 µM,0.107
same,relative viability,[6]; first compound 5 µM,0.106
same,relative viability,[7]; first compound 0.05 µM,0.693
same,relative viability,[7]; first compound 0.1581 µM,0.513
same,relative viability,[7]; first compound 0.5 µM,0.136
same,relative viability,[7]; first compound 1.581 µM,0.0798
same,relative viability,[7]; first compound 5 µM,0.0903
same,relative viability,[8]; first compound 0.05 µM,0.976
same,relative viability,[8]; first compound 0.1581 µM,0.843
same,relative viability,[8]; first compound 0.5 µM,0.257
same,relative viability,[8]; first compound 1.581 µM,0.0961
same,relative viability,[8]; first compound 5 µM,0.0852
same,relative viability,[9]; first compound 0.05 µM,0.92
same,relative viability,[9]; first compound 0.1581 µM,0.67
same,relative viability,[9]; first compound 0.5 µM,0.23
same,relative viability,[9]; first compound 1.581 µM,0.128
same,relative viability,[9]; first compound 5 µM,0.112
same,relative viability,[10]; first compound 0.05 µM,0.821
same,relative viability,[10]; first compound 0.1581 µM,0.735
same,relative viability,[10]; first compound 0.5 µM,0.221
same,relative viability,[10]; first compound 1.581 µM,0.0967
same,relative viability,[10]; first compound 5 µM,0.102
A549,relative viability,[1]; 0.05 µM,0.987
same,relative viability,[1]; 0.1581 µM,1.01
same,relative viability,[1]; 0.5 µM,0.399
same,relative viability,[1]; 1.581 µM,0.0506
same,relative viability,[1]; 5 µM,0.054
same,relative viability,[3]; first compound 0.05 µM,0.344
same,relative viability,[3]; first compound 0.1581 µM,0.215
same,relative viability,[3]; first compound 0.5 µM,0.149
same,relative viability,[3]; first compound 1.581 µM,0.0485
same,relative viability,[3]; first compound 5 µM,0.0961
same,relative viability,[4]; first compound 0.05 µM,0.984
same,relative viability,[4]; first compound 0.1581 µM,0.862
same,relative viability,[4]; first compound 0.5 µM,0.0918
same,relative viability,[4]; first compound 1.581 µM,0.0675
same,relative viability,[4]; first compound 5 µM,0.065
same,relative viability,[5]; first compound 0.05 µM,0.979
same,relative viability,[5]; first compound 0.1581 µM,1.03
same,relative viability,[5]; first compound 0.5 µM,0.423
same,relative viability,[5]; first compound 1.581 µM,0.0316
same,relative viability,[5]; first compound 5 µM,0.0318
same,relative viability,[6]; first compound 0.05 µM,0.864
same,relative viability,[6]; first compound 0.1581 µM,0.612
same,relative viability,[6]; first compound 0.5 µM,0.104
same,relative viability,[6]; first compound 1.581 µM,0.0479
same,relative viability,[6]; first compound 5 µM,0.102
same,relative viability,[11]; first compound 0.05 µM,0.152
same,relative viability,[11]; first compound 0.1581 µM,0.145
same,relative viability,[11]; first compound 0.5 µM,0.0554
same,relative viability,[11]; first compound 1.581 µM,0.0361
same,relative viability,[11]; first compound 5 µM,0.0267
same,relative viability,[7]; first compound 0.05 µM,1.25
same,relative viability,[7]; first compound 0.1581 µM,1.19
same,relative viability,[7]; first compound 0.5 µM,0.294
same,relative viability,[7]; first compound 1.581 µM,0.0413
same,relative viability,[7]; first compound 5 µM,0.0332
same,relative viability,[8]; first compound 0.05 µM,0.63
same,relative viability,[8]; first compound 0.1581 µM,0.714
same,relative viability,[8]; first compound 0.5 µM,0.386
same,relative viability,[8]; first compound 1.581 µM,0.0698
same,relative viability,[8]; first compound 5 µM,0.29
same,relative viability,[12]; first compound 0.05 µM,0.253
same,relative viability,[12]; first compound 0.1581 µM,0.237
same,relative viability,[12]; first compound 0.5 µM,0.212
same,relative viability,[12]; first compound 1.581 µM,0.0645
same,relative viability,[12]; first compound 5 µM,0.0614
same,relative viability,[9]; first compound 0.05 µM,0.802
same,relative viability,[9]; first compound 0.1581 µM,0.753
same,relative viability,[9]; first compound 0.5 µM,0.186
same,relative viability,[9]; first compound 1.581 µM,0.0572
same,relative viability,[9]; first compound 5 µM,0.0466
same,relative viability,[10]; first compound 0.05 µM,0.606
same,relative viability,[10]; first compound 0.1581 µM,0.55
same,relative viability,[10]; first compound 0.5 µM,0.0875
same,relative viability,[10]; first compound 1.581 µM,0.0523
same,relative viability,[10]; first compound 5 µM,0.0706
